# Results as given in ChEMBL document CHEMBL4842364 (J Med Chem, 2021).
# Experiments:
# [1] = Volume of distribution at steady state in Beagle dog at 3 mg/kg, iv measured upto 24 hrs by LC-MS/MS analysis; assay type: ADME, organism-based, Canis lupus familiaris; details: in vivo, read-out: Vdss
# [2] = target: Serine/threonine-protein kinase PLK2 (Homo sapiens, UniProt Q9NYY3); assay: Inhibition of PLK2 (unknown origin)
# [3] = Half life in Beagle dog at 10 mg/kg, po measured upto 24 hrs by LC-MS/MS analysis; assay type: ADME, organism-based, Canis lupus familiaris; details: in vivo
# [4] = Efflux ratio of permeability from basolateral to apical side over apical to basolateral side in human Caco-2 cells; assay type: ADME, cell-based
# [5] = Permeability of the compound across apical to basolateral side in human Caco-2 cells; assay type: ADME, cell-based; details: read-out: permeability
# [6] = Octanol/buffer distribution coefficient, logD of the compound at pH 7.4; assay type: physicochemical
# Cytochrome P450 3A4 = Cytochrome P450 3A4 (Homo sapiens, UniProt P08684); assay: Inhibition of CYP3A4 (unknown origin); assay type: ADME
# Sequence of Cytochrome P450 3A4 (P08684 whole entry): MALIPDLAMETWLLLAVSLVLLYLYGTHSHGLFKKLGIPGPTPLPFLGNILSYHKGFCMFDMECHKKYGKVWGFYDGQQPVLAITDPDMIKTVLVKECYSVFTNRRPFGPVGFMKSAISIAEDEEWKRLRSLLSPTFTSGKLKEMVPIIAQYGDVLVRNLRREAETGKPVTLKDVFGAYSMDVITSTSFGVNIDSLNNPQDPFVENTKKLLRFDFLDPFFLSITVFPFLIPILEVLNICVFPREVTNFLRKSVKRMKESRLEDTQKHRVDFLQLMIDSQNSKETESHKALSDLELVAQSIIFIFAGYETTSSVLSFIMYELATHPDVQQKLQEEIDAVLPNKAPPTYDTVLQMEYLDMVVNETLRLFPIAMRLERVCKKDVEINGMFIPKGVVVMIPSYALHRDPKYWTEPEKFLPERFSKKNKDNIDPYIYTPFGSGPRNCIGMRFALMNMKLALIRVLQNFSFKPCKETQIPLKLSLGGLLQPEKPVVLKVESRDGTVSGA
# [7] = target: Serine/threonine-protein kinase PLK1 (Homo sapiens, UniProt P53350); assay: Inhibition of PLK1 (unknown origin) at 1 uM relative to control
# Sequence of Serine/threonine-protein kinase PLK1 (P53350 whole entry): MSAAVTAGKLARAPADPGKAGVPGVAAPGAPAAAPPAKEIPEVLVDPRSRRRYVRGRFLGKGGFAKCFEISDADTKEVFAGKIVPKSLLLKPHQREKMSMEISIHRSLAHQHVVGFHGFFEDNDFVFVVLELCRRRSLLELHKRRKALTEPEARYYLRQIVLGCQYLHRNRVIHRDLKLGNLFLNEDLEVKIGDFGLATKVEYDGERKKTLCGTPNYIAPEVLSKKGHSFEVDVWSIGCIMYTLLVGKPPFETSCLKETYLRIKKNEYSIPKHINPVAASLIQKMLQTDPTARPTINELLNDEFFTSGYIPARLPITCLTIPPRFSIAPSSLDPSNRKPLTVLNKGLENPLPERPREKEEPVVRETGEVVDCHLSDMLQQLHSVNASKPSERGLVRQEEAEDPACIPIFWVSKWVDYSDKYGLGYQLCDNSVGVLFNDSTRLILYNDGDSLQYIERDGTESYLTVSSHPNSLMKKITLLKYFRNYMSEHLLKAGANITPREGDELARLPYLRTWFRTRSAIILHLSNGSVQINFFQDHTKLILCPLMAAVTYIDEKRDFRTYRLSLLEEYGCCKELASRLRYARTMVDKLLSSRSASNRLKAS
# Sequence of Serine/threonine-protein kinase PLK2 (Q9NYY3 whole entry): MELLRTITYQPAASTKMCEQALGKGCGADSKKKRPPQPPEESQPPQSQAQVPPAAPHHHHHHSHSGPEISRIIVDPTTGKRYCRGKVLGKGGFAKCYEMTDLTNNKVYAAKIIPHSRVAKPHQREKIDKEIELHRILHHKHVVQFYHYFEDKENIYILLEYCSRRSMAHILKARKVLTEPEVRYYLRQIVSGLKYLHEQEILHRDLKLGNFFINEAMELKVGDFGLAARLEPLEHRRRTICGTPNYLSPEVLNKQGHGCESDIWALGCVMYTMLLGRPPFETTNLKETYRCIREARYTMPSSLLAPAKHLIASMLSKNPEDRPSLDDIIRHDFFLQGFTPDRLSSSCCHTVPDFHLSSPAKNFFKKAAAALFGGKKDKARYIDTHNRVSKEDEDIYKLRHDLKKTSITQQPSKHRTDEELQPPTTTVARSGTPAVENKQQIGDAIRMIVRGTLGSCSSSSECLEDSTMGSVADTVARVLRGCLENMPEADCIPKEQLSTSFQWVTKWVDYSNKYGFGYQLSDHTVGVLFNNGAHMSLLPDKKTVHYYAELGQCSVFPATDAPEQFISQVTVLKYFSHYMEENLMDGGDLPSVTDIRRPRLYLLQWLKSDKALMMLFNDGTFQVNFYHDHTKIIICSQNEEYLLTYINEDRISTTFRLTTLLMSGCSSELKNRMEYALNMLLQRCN
structure (smiles),measurement,setting,value
C=CCn1c(=O)c2cnc(Nc3ccc(N4CCN(C)CC4)cc3)nc2n1-c1ccc2c(n1)C(O)(CC)CC2 (racemic),Vd,[1],4.4 L/kg
same,IC50,[2],0.04 µM
same,half-life,[3],2.3 h
same,efflux ratio,[4],7
same,Papp A→B,[5],3.6 ×10⁻⁶ cm/s
same,logD,[6],2.4
same,IC50,Cytochrome P450 3A4,7 µM
same,inhibition,[7],75%
